These are literature values, as cited in US20230228654A1, “Blood Sampling Device and Method for PEth Measurement” (CAPITAINER AB, priority 2020, published 2023).

In the data set the test system is PLD. To be noted: Schröck et al, Alcohol 2018; cited from earlier work.

For `O=C(NCCN1CCC(n2c(=O)[nH]c3ccccc32)CC1)c1cc2cc(F)ccc2[nH]1` [FIPI, 5-fluoro-2-indolyl-deschlorohalopemide], the “potency as PLD inhibitor” value is listed as “low potency”.

Turning to `O=C(NCCN1CCC(n2c(=O)[nH]c3cc(Cl)ccc32)CC1)c1ccc(F)cc1` [halopemide], the “potency as PLD inhibitor” value is “low potency”.
